Results on two molecules are retold here after patent publication US20150164901A1, “COMPOUNDS, COMPOSITIONS AND METHODS FOR TREATING OR PREVENTING NEURODEGENERATIVE DISORDERS” (President and Fellows of Harvard College, priority 2012, published 2015).

Test [1] relates to human motor neurons. Briefly: SMN expression distribution in human motor neurons treated with Trichostatin A (FIG. 14). The settings on record: compared to a control. It is filed as cell-based.
Test [2] relates to SMN. Briefly: SMN immunostaining in human motor neurons derived from SMA patient iPS cells (FIG. 10B, 10D, 10F). It is filed as cell-based. The settings on record: SMA Type II (1-51) and SMA Type I iPS-derived motor neurons on glia with Ara C, 7 days. The text has this:
(§1) Representative images are shown for Type II motor neurons. SMN is shown in red, the motor neuron marker islet 1 is shown in green, and the nuclear marker Hoechst is shown in blue. […] Error bars indicate ±S.E.M.

The subject of test [3] is SMN-deficient motor neurons. The test is described as follows: Survival of SMA-like mouse motor neurons derived from ES cells of A2 mice (FIG. 9B). It is filed as cell-based. The settings on record: A2 mouse ES-derived motor neurons (no mSMN, two copies of hSMN2), treated four days. As to the method:
(§2) FIG. 9A are images of immunostains of motor neurons derived from the ES-cells of A2 mice that lack a functional copy of mSMN but are supplemented with two copies of hSMN2 and thus are deficient but not completely lacking SMN protein were treated with MLN4924 for four days, SMN is shown in red and the hb9 promoter driven-GFP is shown in green. […] The error bars indicate ±S.E.M.

For test [4], the system named is SMN. The test is described as follows: Histogram analysis of SMN expression in motor neurons under SMN RNAi (FIG. 8C). The format is cell-based. The text has this:
(§3) MLN4924 is able to reverse the effects of SMN knockdown on motor neuron death. Representative images are shown.

Another test concerns Brn2+ neurons. Briefly: Survival of Brn2+ neurons (FIG. 13). It is filed as cell-based. The settings on record: compared to DMSO control.
The test system of test [5] is SMN. Briefly: SMN levels in wild type and patient iPS-derived motor neurons (FIG. 16). The format is cell-based, human. The conditions noted are these: motor neurons BJ RIPS (WT), A19 (C9 ORF), 27B (SOD1), 1-51N (SMA type II).
Test [6] relates to human motor neurons. Briefly: Motor neuron survival in human motor neurons (summary of data). The format is cell-based. The source says: (§4) As shown herein, MLN increases SMN in human MNs, both in measures of average SMN and # of high SMN expressors. […] The effect on proliferation can be dissociated, for example, by using AraC in protocols for differentiation of cells into motor neurons.

The next test deals with motor neurons. The test is described as follows: Survival of wild type and ALS patient motor neurons (FIG. 17). The conditions noted are these: BJ RIPS (WT), 18A (WT), 27B (SOD1), 31D (TDP43), A19 (C9ORF). It is filed as cell-based, human.
The next test deals with SMN protein. The test is described as follows: SMN-specific antibody staining of SMA patient and parent fibroblasts (FIG. 2C). It is filed as cell-based. The settings on record: human fibroblasts derived from SMA patients and their parents. The source says:
FIG. 2A is a Western blot analysis showing the levels of SMN in cells expressing wild-type SMN and the dominant negative form of Cullin1 protein. […] FIGS. 2D and 2E are dose response curves of nuclear (FIG. 2D) and cytoplasmic (FIG. 2E) SMN levels in SMA patient and parent fibroblasts treated with MLN4924 at the indicated time points. The error bars in FIGS. 2D and 2B indicate ±S.E.M. SMN levels are normalized to DMSO control for each cell line at each time point.

In test [7] the test system is proliferation in the culture. Briefly: Proliferation in motor neuron cultures. The format is cell-based.
From the text: as §4

Test [8] relates to motor neurons derived from ES cells. Briefly: Survival of ES cell-derived hb9-GFP motor neurons, time-course imaging (FIG. 7). The format is cell-based, mouse. As to the method: FIG. 7A is a line graph showing the results of a time-course analysis of motor neurons derived from ES cells expressing GFP under the motor neuron specific hb9 promoter performed with imaging every 6 hours for a 7 day period. […] The error bars indicate ±S.E.M.

In test [9] the test system is SMN. Briefly: SMN immunostaining in SMA-like mouse motor neurons (FIG. 9C-9D). It is filed as cell-based. The settings on record: A2 mouse ES-derived motor neurons, treated four days. As to the method:
as §2

The test system of test [10] is SMN. Briefly: SMN in human motor neurons (summary of data). It is filed as cell-based. The conditions noted are these: human MNs.
From the text: as §4

Test [11] relates to SMN-deficient human motor neurons. The test is described as follows: Survival of human motor neurons derived from SMA patient iPS cells (FIG. 10C, 10E). The format is cell-based. The settings on record: SMA Type II (1-51) and SMA Type I iPS-derived motor neurons on glia with Ara C, 7 days.
From the text: as §1

The subject of the next test is SMN transcript. Briefly: Quantitative RT-PCR of SMN transcript in motor neuron cultures (FIG. 6C). It is filed as cell-based. The conditions noted are these: compared to control.
Test [12] has as its system SMN. The test is described as follows: Western blot of SMN in lysates of motor neuron cultures (FIG. 6A-6B). The format is cell-based. The conditions noted are these: treated for 3 days, DMSO as control.
The test system of test [13] is human motor neurons derived from ALS patient iPS cells. Briefly: Survival of human motor neurons derived from wild-type and ALS patient ES or iPS cells (FIG. 11). The format is cell-based. The conditions noted are these: wild-type (HUES3, 18a) and ALS patient (47a) lines on glia, treated 14 days after 7 days in culture. The text has this:
FIG. 11A are immune stains of motor neurons derived from human wild-type (HUES3, 18a) and ALS patient (47a) ES or iPS cells. […] Representative images are shown for the Hues3 line which expresses GFP under the hb9 promoter shown is green, human nuclear antigen (hNA) shown in pink, and the nuclear marker Hoechst is shown in blue. […] Error bars indicate ±S.E.M.

In test [14] the test system is SMN. Briefly: Immunocytochemical analysis of SMN in motor neurons derived from mouse embryonic stem cells (FIG. 6D-6G). It is filed as cell-based. The text has this:
FIGS. 6B and 6C are bar graphs quantifying the results in FIG. 6A. […] SMN is shown in red and GFP driven by the motor neuron specific promoter hb9 is shown in green. […] High SMN expressor is defined as those motor neurons that harbor SMN levels greater than the top 10th percentile as defined in the DMSO control. Error bars indicate ±S.E.M.

The next test concerns Gem counts. Briefly: Gem counts in wild type and ALS patient motor neurons (FIG. 18). The format is cell-based, human. The settings on record: motor neurons 18A (WT), A19 (C9 ORF), 31D (TDP43), 27B (SOD1).
The next test has as its system hb9_RFP motor neurons. Briefly: SMN knockdown (shRNA lentivirus) induced motor neuron death (FIG. 8A-8B). The conditions noted are these: SMN knockdown using shRNA lentivirus in hb9_RFP motor neurons. The format is cell-based.
From the text: as §3

On to `CC(/C=C/C(=O)NO)=C\[C@@H](C)C(=O)c1ccc(N(C)C)cc1` [Trichostatin A], for which, in the test on human motor neurons [1], the “number of low SMN expressing motor neurons” value is reported as “selectively reduces”.

As for `NS(=O)(=O)OC[C@@H]1C[C@@H](n2ccc3c(N[C@H]4CCc5ccccc54)ncnc32)C[C@@H]1O` [MLN4924, ((1S,2S,4R)-4-(4-(((S)-2,3-dihydro-1H-inden-1-yl)amino)-7H-pyrrolo[2,3-d]pyrimidin-7-yl)-2-hydroxycyclopentyl)methyl sulfamate], the SMN levels entry is “significantly increases” in the test on SMN [2], “increases SMN levels” in the test with SMN [5] and “significantly increases” in the test with SMN [9]. The “number of high SMN expressing motor neurons” value with SMN [2] is reported as “significantly increases”; in the test with SMN [4], “increases”; in the test with SMN [9], “significantly increases”; in the test with SMN [14] (high SMN expressor = SMN levels greater than the top 10th percentile of DMSO control), “dose-dependent effect”. Also, the “number of surviving motor neurons” value in test [3], in test [11] and in [13] was “significantly increases” in each case. In addition, the “survival of Brn2+ neurons” value with Brn2+ neurons is “increases survival”. In the test on human motor neurons [6], the “survival of motor neurons derived from ALS patients and their parents” value was “promotes survival”. In addition, the “survival of motor neurons derived from SMA patients and their parents” value with human motor neurons [6] is reported as “promotes survival”. In addition, the motor neuron survival result in the test on human motor neurons [6] (human motor neurons) is recorded as “promote motor neuron survival”. Also, the “MN survival, preliminary results” value in the test on human motor neurons [6] (preliminary, believed to depend on the amount of proliferation in the culture) was “variable”. The “survival of motor neurons” value in the test on motor neurons is “increases the survival”. Also, the “SMN protein (SMN-specific antibody staining)” value in the test with SMN protein is reported as “stabilization of SMN protein”. Moreover, the proliferation result in test [7] is “inhibits proliferation”. Also, the “motor neuron survival (time-course analysis)” value in test [8] (imaging every 6 hours for a 7 day period) is on record as “significantly increases”. The “motor neuron survival (dose response)” value in test [8] (mouse-ES derived motor neurons) is “dose-dependent significant increase”. In addition, in the test on SMN [10], the “# of high SMN expressors” value is recorded as “increases”. In addition, the “average SMN” value in the test on SMN [10] is “increases”. Further, the “SMN transcript levels (quantitative RT-PCR)” value with SMN transcript was “not significantly affected”. For the same molecule, the “SMN levels (Western blot)” value with SMN [12] is on record as “significantly increased”. Also, the “amount of low SMN expressors (histogram analysis)” value in the test with SMN [14] (mouse ES-derived motor neurons) is reported as “without affecting”. Moreover, in the test on SMN [14] (mouse ES-derived motor neurons), the “number of motor neurons with higher levels of SMN expression (histogram analysis)” value is “increases”. For the same molecule, in the test on SMN [14] (mouse ES-derived motor neurons, treated at plating, fixed four days later, increasing levels of MLN4924), the “average intensity of SMN” value is “significantly increases in a dose-dependent manner”. Further, the Gem counts entry in the test with Gem counts is “increases Gem counts”. The “effect of SMN RNAi on inducing motor neuron death” value in the test with hb9_RFP motor neurons is given as “significantly inhibits”.
